From PMC10700673, “A Smart Intracellular Self‐Assembling Bioorthogonal Raman Active Nanoprobe for Targeted Tumor Imaging” (Advanced Science, 2023)

Columns and labels:
[1] = tested on: LNCaP tumors; assay: in vivo Raman imaging of tumor-bearing mice; parameters: species or system NU/J nude mice; conditions: 2 h after IV injection of 0.0125 mmol kg-1, compared with DU145
Protocol: (§1) To further evaluate the ability of the nanoSABER probe to delineate legumain‐overexpressing tumors, in vivo Raman imaging of tumors of mice inoculated with DU145 and LNCaP cells was performed (Figure 6a). The Raman images were captured 2 h after the intravenous (IV) injection of the nanoSABER probe. […] Our results validated that nanoSABER experienced tumor legumain‐triggered self‐assembly into alkyne‐dimer nanoparticles that effectively generated distinct and higher Raman signals in DU145 tumors. To validate our findings, we included a control group that received a PBS injection instead of the nanoSABER probes. In both types of tumors, no Raman signal was detected in the control group (Figure S15, Supporting Information), further confirming that the observed signals in the experimental groups were indeed attributable to the legumain‐instructed self‐assembly of alkyne‐dimer nanoparticles.
(§2) All animal experiments were approved by an institutional animal care and use committee (IACUC) protocol. NU/J nude mice (male, 6–8 weeks old) were subcutaneously injected with 1 × 10^6 DU145 or LNCaP cells in the right flank. Once the tumor reached a volume of 100–200 mm^3, mice were IV injected with 0.0125 mmol kg^–1 nanoSABER or PBS (control group). After 2 h, Raman imaging was performed to determine the amount of intracellular self‐assembly within the tumors.

[2] = tested on: DU145 tumor; assay: in vivo Raman imaging of tumor-bearing mice; parameters: species or system NU/J nude mice; conditions: 2 h after IV injection of 0.0125 mmol kg-1
Protocol: as §1, §2

[3] = biological target: T1, Recombinant human legumain (Homo sapiens, UniProt Q99538); assay: legumain- and GSH-triggered cleavage and condensation in solution (Raman, HPLC, MALDI); format: biochemical; conditions: 37 °C
T1 construct: purchased R&D systems
T1 sequence (Q99538 18-433): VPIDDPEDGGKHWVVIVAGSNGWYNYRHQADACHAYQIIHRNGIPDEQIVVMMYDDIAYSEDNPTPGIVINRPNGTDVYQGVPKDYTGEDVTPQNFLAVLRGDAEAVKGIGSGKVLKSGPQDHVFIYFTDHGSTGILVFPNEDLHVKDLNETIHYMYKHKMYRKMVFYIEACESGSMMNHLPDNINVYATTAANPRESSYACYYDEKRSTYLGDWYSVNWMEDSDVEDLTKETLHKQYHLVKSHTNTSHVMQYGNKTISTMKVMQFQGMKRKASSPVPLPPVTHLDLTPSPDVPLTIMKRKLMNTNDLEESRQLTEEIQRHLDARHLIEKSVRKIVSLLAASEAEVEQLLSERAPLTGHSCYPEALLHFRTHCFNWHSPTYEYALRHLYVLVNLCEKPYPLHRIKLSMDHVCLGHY
Protocol: The detailed synthetic procedures and characterization of the nanoSABER probe are given in Scheme S1 and Figures S1 and S2 (Supporting Information), respectively. The Raman signatures of nanoSABER (Figure 2a) display the vibrational stretching frequencies of alkyne and nitrile at 2121 and 2230 cm^−1, respectively. The ratio of alkyne/nitrile Raman peak intensity in the nanoSABER solutions was measured to be 0.21±0.04. Next, we studied the cleavage of the nanoSABER probe by legumain, leading to the formation of supramolecular self‐assembled nanoparticles. This was verified using high‐resolution matrix‐assisted laser desorption/ionization–time‐of‐flight mass spectrometry (MALDI), RS, and high‐performance liquid chromatography (HPLC). We first incubated 25 µM of nanoSABER probe with 250 µM GSH for 2 h at 37 °C. This reduced the disulfide bond of D‐cysteine, producing reduced nanoSABER, which was identified using HPLC and MALDI by the appearance of a peak at a retention time of 16.5 min (Figure 2b) and an observed mass of 1737.5 (Figure 2c). When nanoSABER was co‐incubated with 250 µM GSH and 3 µL (10 µg/50 µL) legumain enzyme for 3 h at 37 °C, the reduced nanoSABER that was generated in situ reacted with the legumain enzyme to form an active cleaved intermediate. The latter underwent intermolecular condensation to yield the alkyne‐dimer. […] Both HPLC fractions were collected and characterized by MALDI.
Figure 2 Optical and structural properties of nanoSABER (R6‐AAN‐alkyne‐nitrile) and alkyne‐dimer. a) Raman spectra of R6AAN‐alkyne and nanoSABER showing the alkyne and nitrile vibrational stretching frequency at 2121 cm^−1 and 2230 cm^−1, respectively, expressed as the mean ± standard deviation for n = 22 independent in vitro measurements. b) HPLC chromatogram of 250 µM nanoSABER (red) and 250 µM nanoSABER + 1 mM GSH incubated for 3 h (green), and 250 µM nanoSABER + 1 mM GSH + 3 µL (10 µg/50 µL) legumain incubated for 3 h (blue). c–e) HR‐MALDI‐TOF/MS spectra of reduced nanoSABER, cleaved R6‐AAN, and alkyne‐dimer. f) Raman spectra of 250 µM nanoSABER + 1 mM GSH + 3 µL (10 µg/50 µL) legumain incubated for 3 h, shown as the mean with a standard deviation of n = 22 independent in vitro measurements. g) Enzymatic conversion ratios of 250 µM nanoSABER in the presence of 1 mM GSH and 3 µL (10 µg/50 µL) legumain enzyme as a function of time, as calculated from the alkyne/nitrile Raman peak intensity ratio. h,i) TEM and DLS of alkyne‐dimer nanoparticles (red circles) after incubation of 250 µM nanoSABER + 1 mM GSH + 3 µL (10 µg/50 µL) legumain for 3 h at 37 °C. All subpanels reflect representative data from i n vitro experiments repeated three times unless stated.
To accurately evaluate the efficiency of the R6‐AAN‐alkyne‐nitrile nanoprobe, time‐dependent Raman measurements were performed (Figure 2g), where the ratio of alkyne/nitrile peak intensity was used as an indicator of the reaction progress. We found as the reaction progressed the alkyne/nitrile peak intensity increased from 0.22±0.01 to 4.4±0.12 and plateaued at a final value of 4.6±0.12 indicating almost complete conversion of nanoSABER to alkyne‐dimer within 3 h. […] To further get insight into the structural arrangements of the self‐assembled dimers, transmission electron microscopy (TEM) was performed. […]

cleavage and condensation by legumain (HPLC retention time and MALDI mass) ([3]; 250 µM + 1 mM GSH + 3 µL (10 µg/50 µL) legumain, 3 h): efficiently cleaved by legumain | time to almost complete conversion to alkyne-dimer ([3]; 250 µM nanoSABER + 1 mM GSH + 3 µL (10 µg/50 µL) legumain, from the alkyne/nitrile Raman ratio): ≤ 3 h | alkyne/nitrile peak intensity ratio, start of reaction ([3]; 250 µM nanoSABER + 1 mM GSH + 3 µL (10 µg/50 µL) legumain, time-dependent Raman, initial value): 0.22±0.01 | alkyne/nitrile peak intensity ratio, plateau final value ([3]; 250 µM nanoSABER + 1 mM GSH + 3 µL (10 µg/50 µL) legumain, time-dependent Raman, plateau): 4.6±0.12 | alkyne/nitrile peak intensity ratio, as the reaction progressed ([3]; 250 µM nanoSABER + 1 mM GSH + 3 µL (10 µg/50 µL) legumain, time-dependent Raman, value reached before plateau): 4.4±0.12
Substance: Ac‐Arg‐Arg‐Arg‐Arg‐Arg‐Arg‐Ala‐Ala‐Asn‐Cys(StBu)‐Pra‐Lys‐CBT [nanoSABER]
Raman signal intensity within the tumor [1]: significantly weaker | Raman signal of the alkyne peak at 2120 cm-1 in the tumor [2]: Intense Raman signal
